Experimental findings from article PMC6437697 (Journal of Medicinal Chemistry, 2019) are described below.

Each structure is given as a SMILES string.

What all share (assay): KINOMEscan
Type in all cases: binding
Common to all, as to conditions: read-out: % control activity remaining

One assay has as its target T1, CDKL5 (Homo sapiens, UniProt O76039).
T1 construct: purchased Eurofins DiscoverX KINOMEscan
T1 sequence (O76039 1-960): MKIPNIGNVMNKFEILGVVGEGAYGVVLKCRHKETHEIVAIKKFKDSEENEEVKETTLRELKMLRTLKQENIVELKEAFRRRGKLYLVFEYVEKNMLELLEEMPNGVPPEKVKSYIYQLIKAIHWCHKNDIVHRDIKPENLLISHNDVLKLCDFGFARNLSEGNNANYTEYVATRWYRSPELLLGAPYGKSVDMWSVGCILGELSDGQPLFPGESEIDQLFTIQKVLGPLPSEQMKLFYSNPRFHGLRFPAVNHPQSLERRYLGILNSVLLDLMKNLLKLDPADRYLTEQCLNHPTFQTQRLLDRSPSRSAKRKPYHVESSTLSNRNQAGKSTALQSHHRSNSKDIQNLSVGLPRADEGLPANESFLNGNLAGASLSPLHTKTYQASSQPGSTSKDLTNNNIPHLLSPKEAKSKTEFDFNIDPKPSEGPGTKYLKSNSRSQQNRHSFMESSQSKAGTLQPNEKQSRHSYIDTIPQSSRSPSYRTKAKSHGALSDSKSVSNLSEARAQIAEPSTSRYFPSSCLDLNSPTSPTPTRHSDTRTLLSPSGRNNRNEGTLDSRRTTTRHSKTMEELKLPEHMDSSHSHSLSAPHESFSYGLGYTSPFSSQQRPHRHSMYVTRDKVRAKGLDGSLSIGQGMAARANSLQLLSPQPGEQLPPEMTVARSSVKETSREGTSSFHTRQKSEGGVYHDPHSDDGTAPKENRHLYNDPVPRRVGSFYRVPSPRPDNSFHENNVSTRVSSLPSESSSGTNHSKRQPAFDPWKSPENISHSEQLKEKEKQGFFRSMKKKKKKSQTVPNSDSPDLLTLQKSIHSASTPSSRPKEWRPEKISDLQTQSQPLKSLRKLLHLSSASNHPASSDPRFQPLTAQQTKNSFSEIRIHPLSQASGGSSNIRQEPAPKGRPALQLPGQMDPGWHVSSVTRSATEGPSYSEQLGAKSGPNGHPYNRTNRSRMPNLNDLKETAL

The next assay deals with T2, CSF1R-autoinhibited (Homo sapiens, UniProt P07333).
T2 construct: purchased Eurofins DiscoverX KINOMEscan
T2 sequence (P07333 539-972 limits assumed): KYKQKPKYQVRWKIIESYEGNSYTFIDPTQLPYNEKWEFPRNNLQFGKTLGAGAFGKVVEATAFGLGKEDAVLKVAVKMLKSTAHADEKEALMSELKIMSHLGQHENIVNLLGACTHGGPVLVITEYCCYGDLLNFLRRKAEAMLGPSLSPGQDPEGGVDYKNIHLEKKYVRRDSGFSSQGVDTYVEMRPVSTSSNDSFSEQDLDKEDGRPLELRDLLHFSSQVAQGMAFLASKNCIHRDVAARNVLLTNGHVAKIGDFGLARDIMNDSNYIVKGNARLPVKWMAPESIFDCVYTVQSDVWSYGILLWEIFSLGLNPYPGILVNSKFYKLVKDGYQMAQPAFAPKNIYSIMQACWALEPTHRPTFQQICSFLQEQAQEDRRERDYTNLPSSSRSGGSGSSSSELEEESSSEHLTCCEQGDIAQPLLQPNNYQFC

Another assay addresses T3, DDR1 (Homo sapiens, UniProt Q08345).
T3 construct: purchased Eurofins DiscoverX KINOMEscan

In assay [1] the target is T4, JAK1(JH1domain-catalytic) (Homo sapiens, UniProt P23458).
T4 construct: JAK1(JH1domain-catalytic); purchased Eurofins DiscoverX KINOMEscan
T4 sequence (P23458 875-1154 limits assumed): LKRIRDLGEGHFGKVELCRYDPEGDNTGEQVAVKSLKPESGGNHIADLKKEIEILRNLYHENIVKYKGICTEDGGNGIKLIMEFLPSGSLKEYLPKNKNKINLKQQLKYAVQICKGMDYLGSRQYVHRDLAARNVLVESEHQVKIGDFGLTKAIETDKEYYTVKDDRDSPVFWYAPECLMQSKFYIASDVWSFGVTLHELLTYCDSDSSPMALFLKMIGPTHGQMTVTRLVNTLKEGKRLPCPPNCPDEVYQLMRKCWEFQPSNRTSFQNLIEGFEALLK

Another assay addresses T5, JNK3 (Homo sapiens, UniProt P53779).
T5 construct: purchased Eurofins DiscoverX KINOMEscan

The target of a further assay is T6, MAPKAPK5 (Homo sapiens, UniProt Q8IW41).
T6 construct: purchased Eurofins DiscoverX KINOMEscan
T6 sequence (Q8IW41 1-473): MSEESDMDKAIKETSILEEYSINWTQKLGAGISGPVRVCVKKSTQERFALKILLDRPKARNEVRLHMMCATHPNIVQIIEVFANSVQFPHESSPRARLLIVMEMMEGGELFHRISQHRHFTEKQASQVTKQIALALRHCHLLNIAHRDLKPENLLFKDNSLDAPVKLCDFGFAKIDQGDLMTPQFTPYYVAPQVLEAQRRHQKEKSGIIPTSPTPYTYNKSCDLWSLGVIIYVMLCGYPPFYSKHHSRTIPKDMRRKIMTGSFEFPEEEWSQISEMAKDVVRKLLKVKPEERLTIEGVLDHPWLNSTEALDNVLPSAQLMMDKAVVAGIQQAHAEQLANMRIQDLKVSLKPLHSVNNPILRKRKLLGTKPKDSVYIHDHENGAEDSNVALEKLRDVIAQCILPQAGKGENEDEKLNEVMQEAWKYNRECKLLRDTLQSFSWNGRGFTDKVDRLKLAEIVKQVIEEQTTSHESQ

The next assay deals with T7, PRKD1 (Homo sapiens, UniProt Q15139).
T7 construct: purchased Eurofins DiscoverX KINOMEscan
T7 sequence (Q15139 1-912): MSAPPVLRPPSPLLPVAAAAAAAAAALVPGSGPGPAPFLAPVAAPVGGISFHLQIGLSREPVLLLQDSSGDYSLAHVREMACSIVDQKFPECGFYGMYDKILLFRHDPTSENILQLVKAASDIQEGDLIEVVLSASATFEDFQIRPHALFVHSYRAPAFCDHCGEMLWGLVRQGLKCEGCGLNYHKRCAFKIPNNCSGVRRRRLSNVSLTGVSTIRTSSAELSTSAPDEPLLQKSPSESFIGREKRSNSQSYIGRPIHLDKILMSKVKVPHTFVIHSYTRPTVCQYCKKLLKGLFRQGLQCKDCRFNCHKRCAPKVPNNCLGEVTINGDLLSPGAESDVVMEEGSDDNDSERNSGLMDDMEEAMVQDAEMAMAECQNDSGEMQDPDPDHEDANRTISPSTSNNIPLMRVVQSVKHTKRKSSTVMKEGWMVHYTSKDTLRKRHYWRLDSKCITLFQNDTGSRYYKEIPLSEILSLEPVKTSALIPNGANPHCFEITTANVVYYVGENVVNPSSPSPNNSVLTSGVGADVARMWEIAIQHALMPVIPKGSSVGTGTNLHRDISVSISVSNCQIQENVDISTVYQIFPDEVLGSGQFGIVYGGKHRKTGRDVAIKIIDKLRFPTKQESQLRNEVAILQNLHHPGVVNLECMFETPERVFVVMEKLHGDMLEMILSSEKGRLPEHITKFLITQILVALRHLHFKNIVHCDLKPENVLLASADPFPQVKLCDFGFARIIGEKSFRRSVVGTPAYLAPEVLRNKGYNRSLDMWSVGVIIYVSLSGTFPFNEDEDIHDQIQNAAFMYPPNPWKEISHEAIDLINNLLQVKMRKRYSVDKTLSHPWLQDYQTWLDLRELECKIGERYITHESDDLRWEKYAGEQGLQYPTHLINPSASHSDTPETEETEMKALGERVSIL

T5 sequence (P53779 whole entry): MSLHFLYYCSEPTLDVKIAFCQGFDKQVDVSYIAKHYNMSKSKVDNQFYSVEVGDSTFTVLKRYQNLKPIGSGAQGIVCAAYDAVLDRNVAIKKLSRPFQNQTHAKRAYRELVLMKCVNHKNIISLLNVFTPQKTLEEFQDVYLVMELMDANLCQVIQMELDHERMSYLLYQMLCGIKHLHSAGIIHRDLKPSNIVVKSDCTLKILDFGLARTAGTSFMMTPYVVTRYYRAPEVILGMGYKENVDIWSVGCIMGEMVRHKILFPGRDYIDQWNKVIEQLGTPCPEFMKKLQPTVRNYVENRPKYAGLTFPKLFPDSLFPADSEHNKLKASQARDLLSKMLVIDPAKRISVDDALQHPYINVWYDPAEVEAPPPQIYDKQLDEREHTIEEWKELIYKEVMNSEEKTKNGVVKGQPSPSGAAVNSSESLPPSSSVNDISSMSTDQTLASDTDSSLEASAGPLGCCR
T3 sequence (Q08345 19-913): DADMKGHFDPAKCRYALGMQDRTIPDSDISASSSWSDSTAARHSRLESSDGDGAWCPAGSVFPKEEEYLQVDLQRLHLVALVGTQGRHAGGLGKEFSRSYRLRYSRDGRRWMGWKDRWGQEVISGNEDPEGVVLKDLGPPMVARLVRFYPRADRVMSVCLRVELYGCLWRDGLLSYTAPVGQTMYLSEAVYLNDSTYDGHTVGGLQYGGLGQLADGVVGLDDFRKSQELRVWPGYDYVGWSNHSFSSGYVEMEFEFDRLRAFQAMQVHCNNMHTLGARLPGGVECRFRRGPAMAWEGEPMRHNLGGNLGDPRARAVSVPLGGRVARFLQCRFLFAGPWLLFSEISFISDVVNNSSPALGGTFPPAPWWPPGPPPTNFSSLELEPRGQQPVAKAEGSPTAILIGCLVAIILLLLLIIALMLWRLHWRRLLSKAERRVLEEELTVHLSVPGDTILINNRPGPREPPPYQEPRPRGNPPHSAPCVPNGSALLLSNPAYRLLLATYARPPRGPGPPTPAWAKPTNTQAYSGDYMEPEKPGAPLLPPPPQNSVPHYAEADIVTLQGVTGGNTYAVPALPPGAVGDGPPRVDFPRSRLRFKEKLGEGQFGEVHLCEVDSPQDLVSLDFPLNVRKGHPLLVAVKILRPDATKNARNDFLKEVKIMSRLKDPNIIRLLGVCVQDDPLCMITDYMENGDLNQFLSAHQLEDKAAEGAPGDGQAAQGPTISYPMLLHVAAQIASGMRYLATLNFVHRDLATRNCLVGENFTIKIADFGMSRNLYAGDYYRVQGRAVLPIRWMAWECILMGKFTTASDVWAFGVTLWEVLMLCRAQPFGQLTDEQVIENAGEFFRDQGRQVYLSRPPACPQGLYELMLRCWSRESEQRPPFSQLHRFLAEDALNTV

Regarding `Clc1cc(NCC2CC2)c2ncc(-c3ccc4[nH]ncc4c3)n2n1` [compound 2, 6-Chloro-N-(cyclopropylmethyl)-3-(1H-indazol-5-yl)imidazo[1,2-b]pyridazin-8-amine], the remaining binding at 1 µM on CDKL5 was found to be 100%; on CSF1R-autoinhibited, 98%; at DDR1, 22%; in assay [1], 100%; on JNK3, 89%; at MAPKAPK5, 91%. Further, the remaining binding at 1 µM at PRKD1 is 100%.
Take `O=C(CN1CCOCC1)N[C@H]1CC[C@H](Nc2cc(Cl)nn3c(-c4ccc5[nH]ncc5c4)cnc23)CC1` [compound 26]: the remaining binding at 1 µM was found to be 46% at CDKL5; 91% on CSF1R-autoinhibited; 100% on DDR1; 100% in assay [1]; 79% at JNK3; 98% on MAPKAPK5. At PRKD1, the remaining binding at 1 µM came out at 98%.
In the case of `CN1CCC(CNc2cc(Cl)nn3c(-c4cc5nc(Nc6ccccc6)[nH]c5cc4F)cnc23)CC1` [compound 31, 6-Chloro-3-(6-fluoro-2-(phenylamino)-1H-benzo[d]imidazol-5-yl)-N-((1-methylpiperidin-4-yl)methyl)imidazo[1,2-b]pyridazin-8-amine], the remaining binding at 1 µM on CDKL5 turned out to be 96%; on CSF1R-autoinhibited it was 100%; on DDR1 it was 96%; in assay [1] it was 100%; on JNK3 it was 99%; at MAPKAPK5, 82%. The remaining binding at 1 µM at PRKD1 worked out at 99%.
